# Results as given in patent US20150087641A1, “HETEROCYCLIC CGRP RECEPTOR ANTAGONISTS” (Merck Sharp & Dohme Corp., priority 2012, published 2015).
# Target: T1, recombinant human CL receptor/RAMP1 (Homo sapiens, UniProt O60894+Q16602)
# T1 construct: expressed in transfected cells
# Test: Recombinant receptor functional assay (cAMP, HTRF)
# Format: cell-based
# Conditions: HEK 293 cells expressing human CL receptor/RAMP1; antagonism of 1.2 nM human α-CGRP-stimulated cAMP
# Experimental: RECOMBINANT RECEPTOR: Human CL receptor (Genbank accession number L76380) was subcloned into the expression vector pIREShyg2 (BD Biosciences Clontech) as a 5′NheI and 3′ PmeI fragment. Human RAMP1 (Genbank accession number AJ001014) was subcloned into the expression vector pIRESpuro2 (BD Biosciences Clontech) as a 5′NheI and 3′NotI fragment. HEK 293 cells (human embryonic kidney cells; ATCC #CRL-1573) were cultured in DMEM with 4.5 g/L glucose, 1 mM sodium pyruvate and 2 mM glutamine supplemented with 10% fetal bovine serum (FBS), 100 units/mL penicillin and 100 μg/mL streptomycin, and maintained at 37° C. and 95% humidity. Cells were subcultured by treatment with 0.25% trypsin with 0.1% EDTA in HBSS. Stable cell line generation was accomplished by co-transfecting 10 μg of DNA with 30 μg Lipofectamine 2000 (Invitrogen) in 75 cm^2 flasks. CL receptor and RAMP1 expression constructs were co-transfected in equal amounts. […]
# RECOMBINANT RECEPTOR FUNCTIONAL ASSAY: Cells were resuspended in DMEM/F12 (Hyclone) supplemented with 1 g/L BSA and 300 μM isobutyl-methylxanthine. […] Raw data were transformed into concentration of cAMP using a standard curve then dose response curves were plotted and inflection point (IP) values were determined.
# T1 sequence (Q16602 23-461): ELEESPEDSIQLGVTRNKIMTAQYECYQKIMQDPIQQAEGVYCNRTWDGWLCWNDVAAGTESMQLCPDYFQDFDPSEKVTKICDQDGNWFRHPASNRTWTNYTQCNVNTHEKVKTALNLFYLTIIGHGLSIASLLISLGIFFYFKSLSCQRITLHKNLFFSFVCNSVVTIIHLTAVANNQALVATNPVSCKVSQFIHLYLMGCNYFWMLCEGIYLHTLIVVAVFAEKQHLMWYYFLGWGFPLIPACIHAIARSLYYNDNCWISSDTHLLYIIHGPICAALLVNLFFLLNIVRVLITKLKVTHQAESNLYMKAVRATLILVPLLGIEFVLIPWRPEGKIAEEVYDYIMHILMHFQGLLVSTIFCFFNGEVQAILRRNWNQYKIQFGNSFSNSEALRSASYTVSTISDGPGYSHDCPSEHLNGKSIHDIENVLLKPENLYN
# T1 sequence (O60894 27-148): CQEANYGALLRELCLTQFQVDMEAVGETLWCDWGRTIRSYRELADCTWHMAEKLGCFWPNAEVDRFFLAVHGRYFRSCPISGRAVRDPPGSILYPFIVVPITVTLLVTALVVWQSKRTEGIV
smiles,measurement,value
"C[C@@H]1[C@H](c2ccccc2)C[C@H](NC(=O)c2ccc3c(c2)CC2(C3)OC(=O)Nc3ncccc32)C(=O)N1CC(F)(F)F (stereo partly drawn) [Example 1, N-((3S,5S,6R)-6-Methyl-2-oxo-5-phenyl-1-(2,2,2-trifluoroethyl)piperidin-3-yl)-2′-oxo-1,1′,2′,3-tetrahydrospiro[indene-2,4′-pyrido[2,3-d][1,3]oxazine]-5-carboxamide]",IC50,89 nM
